As a reminder, the mortality is the percentage killed. By LC50 is commonly meant the concentration that kills 50% of the test population.

≈ marks a conversion by molar mass, not a printed value. Calls of active or inactive are those of the source. No cut-off for these calls is given here.

Test [1] deals with Bemisia tabaci. The test can be described thus: Insecticidal activity against male Bemisia tabaci (sweet potato whitefly) in compound treated cucumber leaves assessed as mortality at 10000 ppm at 25 +/- 1 degC, 70 +/- 5% RH after 48 hr (reference value: 6.3%). It is filed as functional.
For test [2], the system named is Bemisia tabaci. Briefly: Insecticidal activity against Bemisia tabaci (sweet potato whitefly) at egg stage in compound treated cucumber leaves assessed as egg hatch at 10000 ppm at 25 +/- 1 degC, 70 +/- 5% RH after 10 days (reference value: 91%). In kind it is functional.
Test [3] deals with Bemisia tabaci. The test can be described thus: Insecticidal activity against Bemisia tabaci (sweet potato whitefly) at egg stage in compound treated cucumber leaves assessed as egg hatch at 8000 ppm at 25 +/- 1 degC, 70 +/- 5% RH after 10 days (reference value: 91%). In kind it is functional.
In test [4] the test system is Bemisia tabaci. Briefly: Insecticidal activity against Bemisia tabaci (sweet potato whitefly) at egg stage in compound treated cucumber leaves assessed as egg hatch at 2000 ppm at 25 +/- 1 degC, 70 +/- 5% RH after 10 days (reference value: 91%). In kind it is functional.
The test system of test [5] is Bemisia tabaci. Briefly: Insecticidal activity against male Bemisia tabaci (sweet potato whitefly) in compound treated cucumber leaves assessed as mortality at 8000 ppm at 25 +/- 1 degC, 70 +/- 5% RH after 48 hr (reference value: 6.3%). In kind it is functional.
Test [6] relates to Bemisia tabaci. The test can be described thus: Insecticidal activity against male Bemisia tabaci (sweet potato whitefly) in compound treated cucumber leaves assessed as mortality at 2000 ppm at 25 +/- 1 degC, 70 +/- 5% RH after 48 hr (reference value: 6.3%). In kind it is functional.
Test [7] deals with Bemisia tabaci. Briefly: Insecticidal activity against adult female Bemisia tabaci (sweet potato whitefly) in compound treated cucumber leaves assessed as mortality at 10000 ppm at 25 +/- 1 degC, 70 +/- 5% RH after 48 hr (reference value: 9.3%). In kind it is functional.
The test system of test [8] is Bemisia tabaci. The test can be described thus: Insecticidal activity against adult female Bemisia tabaci (sweet potato whitefly) in compound treated cucumber leaves assessed as mortality at 8000 ppm at 25 +/- 1 degC, 70 +/- 5% RH after 48 hr (reference value: 9.3%). It is filed as functional.
For test [9], the system named is Bemisia tabaci. Briefly: Insecticidal activity against adult female Bemisia tabaci (sweet potato whitefly) in compound treated cucumber leaves assessed as mortality at 2000 ppm at 25 +/- 1 degC, 70 +/- 5% RH after 48 hr (reference value: 9.3%). It is filed as functional.
Test [10] has as its system Bemisia tabaci. Briefly: Insecticidal activity against Bemisia tabaci (sweet potato whitefly) at pupae stage in compound treated cucumber leaves assessed as mortality measured as dry larvae and detached from leaf at 25 +/- 1 degC, 70 +/- 5% RH after 7 days. The following applies: 168 h. In kind it is functional.
Test [11] relates to Bemisia tabaci. Briefly: Insecticidal activity against Bemisia tabaci (sweet potato whitefly) at third instar larvae stage in compound treated cucumber leaves assessed as mortality measured as dry larvae and detached from leaf at 25 +/- 1 degC, 70 +/- 5% RH after 7 days. In kind it is functional. The following applies: 168 h.
Test [12] has as its system Bemisia tabaci. The test can be described thus: Insecticidal activity against Bemisia tabaci (sweet potato whitefly) at second instar larvae stage in compound treated cucumber leaves assessed as mortality measured as dry larvae and detached from leaf at 25 +/- 1 degC, 70 +/- 5% RH after 7 days. In kind it is functional. The following applies: 168 h.
The subject of test [13] is Bemisia tabaci. The test can be described thus: Insecticidal activity against adult female Bemisia tabaci (sweet potato whitefly) in compound treated cucumber leaves assessed as offspring sex ratio at LC25 concentration at 25 +/- 1 degC, 70 +/- 5% RH after 48 hr (Rvb Female/Female + male)= 0.60 no unit). In kind it is functional.
Test [14] has as its system Bemisia tabaci. The test can be described thus: Insecticidal activity against adult female Bemisia tabaci (sweet potato whitefly) in compound treated cucumber leaves assessed as longevity at LC25 concentration at 25 +/- 1 degC, 70 +/- 5% RH after 48 hr (reference value: 8.31 days). In kind it is functional.
For test [15], the system named is Bemisia tabaci. Briefly: Insecticidal activity against adult female Bemisia tabaci (sweet potato whitefly) in compound treated cucumber leaves assessed as egg hatch at LC25 concentration at 25 +/- 1 degC, 70 +/- 5% RH after 48 hr (reference value: […]). It is filed as functional.
Test [16] concerns Bemisia tabaci. Briefly: Insecticidal activity against adult female Bemisia tabaci (sweet potato whitefly) in compound treated cucumber leaves assessed as laid eggs at LC25 concentration at 25 +/- 1 degC, 70 +/- 5% RH after 48 hr. It is filed as functional, organism-based.
The test system of test [17] is Bemisia tabaci. Briefly: Insecticidal activity against Bemisia tabaci (sweet potato whitefly) at first instar larvae stage in compound treated cucumber leaves assessed as mortality measured as dry larvae and detached from leaf at 25 +/- 1 degC, 70 +/- 5% RH after 7 days. It is filed as functional. The conditions noted are these: 168 h.
For test [18], the system named is Bemisia tabaci. Briefly: Insecticidal activity against male Bemisia tabaci (sweet potato whitefly) in compound treated cucumber leaves assessed as mortality after 48 hr. It is filed as functional.
In test [19] the test system is Bemisia tabaci. Briefly: Insecticidal activity against adult female Bemisia tabaci (sweet potato whitefly) in compound treated cucumber leaves assessed as mortality after 48 hr. In kind it is functional.
For test [20], the system named is Bemisia tabaci. Briefly: Insecticidal activity against Bemisia tabaci (sweet potato whitefly) at egg stage in compound treated cucumber leaves assessed as mortality measured as failure to hatch at 25 +/- 1 degC, 70 +/- 5% RH after 10 days. It is filed as functional. The conditions noted are these: 240 h.

As for `CC(C)N1C(=O)N(c2ccccc2)CS/C1=N\C(C)(C)C` [BUPROFEZIN], the mortality at 10000 ppm with Bemisia tabaci [1] was determined as 19%; in the test with Bemisia tabaci [7], 9.3%. In addition, the Activity in the test on Bemisia tabaci [2] is given as 72%; in the test with Bemisia tabaci [3], 68%; with Bemisia tabaci [4], 88%; in the test with Bemisia tabaci [15], 66%. Also, the mortality at 8000 ppm in the test with Bemisia tabaci [5] was 10%; in the test with Bemisia tabaci [8] it was 8%. The mortality at 2000 ppm in the test on Bemisia tabaci [6] came to 11.3%; with Bemisia tabaci [9], 8%. Further, the LC50 in the test with Bemisia tabaci [10] was found to be 979 µg/mL (≈ 3210 µM); in the test on Bemisia tabaci [11], 44.7 µg/mL (≈ 146 µM); with Bemisia tabaci [12], 10.9 µg/mL (≈ 35.8 µM); with Bemisia tabaci [17], 0.99 µg/mL (≈ 3.24 µM). Moreover, the Ratio with Bemisia tabaci [13] came out at 0.5. The Time in the test with Bemisia tabaci [14] came to 4.85 days. Also, the result in the test with Bemisia tabaci [16] was Active.

Regarding `O=[N+]([O-])/N=C1\NCCN1Cc1ccc(Cl)nc1` [IMIDACLOPRID], the median lethal concentration (LC50) in the test with Bemisia tabaci [18] worked out at 11.8 µg/mL (≈ 46.2 µM); in the test with Bemisia tabaci [19] (Bemisia tabaci, 48 h), 71.6 µg/mL (≈ 280 µM); with Bemisia tabaci [10] it was 2850 µg/mL (≈ 11200 µM); in the test on Bemisia tabaci [11], 335 µg/mL (≈ 1310 µM); in the test with Bemisia tabaci [12], 85.4 µg/mL (≈ 334 µM); with Bemisia tabaci [17] it was 19.3 µg/mL (≈ 75.5 µM). In addition, the 50% lethal concentration (LC50) in the test on Bemisia tabaci [20] worked out at 151 µg/mL (≈ 591 µM). Moreover, in the test with Bemisia tabaci [19], the LC25 is recorded as 4.64 ppm. Further, the Ratio with Bemisia tabaci [13] came to 0.56. For the same molecule, in the test on Bemisia tabaci [14], the Time amounted to 11.7 days. In addition, the Activity in the test on Bemisia tabaci [15] amounted to 87.42%. The outcome in the test with Bemisia tabaci [16] was inactive.
